Measurements from ChEMBL document CHEMBL3638462, “Pyridine and pyrimidine derivatives as phosphodiesterase 10 inhibitors” (2014).
“And” between values parts separate entries of the source, which are not always exact repeats. Equal entries are not always repeated.

biological target: cAMP and cAMP-inhibited cGMP 3',5'-cyclic phosphodiesterase 10A (Homo sapiens, UniProt Q9Y233); test: Enzyme Inhibition Assay: To check the inhibition profile, 5 μL of serial diluted compounds were incubated with 5 μL of diluted PDE10 enzyme (BPS Bioscience, San Diego, Calif.) or tissue homogenate in a 384-well polystyrene assay plate (Corning, Corning, N.Y.) for 30 min at room temperature. After incubation, 10 μL of diluted fluorescein labeled cAMP or cGMP substrate were added and incubated for 60 min at room temperature. The reaction was stopped by adding 60 μL of diluted binding reagents and plates were read on an Envision (Perkin Elmer, Waltham, Mass.) for time resolved fluorescence resonance energy transfer. The data were analyzed with GraphPad Prism (La Jolla, Calif.).
Sequence (Q9Y233 whole entry): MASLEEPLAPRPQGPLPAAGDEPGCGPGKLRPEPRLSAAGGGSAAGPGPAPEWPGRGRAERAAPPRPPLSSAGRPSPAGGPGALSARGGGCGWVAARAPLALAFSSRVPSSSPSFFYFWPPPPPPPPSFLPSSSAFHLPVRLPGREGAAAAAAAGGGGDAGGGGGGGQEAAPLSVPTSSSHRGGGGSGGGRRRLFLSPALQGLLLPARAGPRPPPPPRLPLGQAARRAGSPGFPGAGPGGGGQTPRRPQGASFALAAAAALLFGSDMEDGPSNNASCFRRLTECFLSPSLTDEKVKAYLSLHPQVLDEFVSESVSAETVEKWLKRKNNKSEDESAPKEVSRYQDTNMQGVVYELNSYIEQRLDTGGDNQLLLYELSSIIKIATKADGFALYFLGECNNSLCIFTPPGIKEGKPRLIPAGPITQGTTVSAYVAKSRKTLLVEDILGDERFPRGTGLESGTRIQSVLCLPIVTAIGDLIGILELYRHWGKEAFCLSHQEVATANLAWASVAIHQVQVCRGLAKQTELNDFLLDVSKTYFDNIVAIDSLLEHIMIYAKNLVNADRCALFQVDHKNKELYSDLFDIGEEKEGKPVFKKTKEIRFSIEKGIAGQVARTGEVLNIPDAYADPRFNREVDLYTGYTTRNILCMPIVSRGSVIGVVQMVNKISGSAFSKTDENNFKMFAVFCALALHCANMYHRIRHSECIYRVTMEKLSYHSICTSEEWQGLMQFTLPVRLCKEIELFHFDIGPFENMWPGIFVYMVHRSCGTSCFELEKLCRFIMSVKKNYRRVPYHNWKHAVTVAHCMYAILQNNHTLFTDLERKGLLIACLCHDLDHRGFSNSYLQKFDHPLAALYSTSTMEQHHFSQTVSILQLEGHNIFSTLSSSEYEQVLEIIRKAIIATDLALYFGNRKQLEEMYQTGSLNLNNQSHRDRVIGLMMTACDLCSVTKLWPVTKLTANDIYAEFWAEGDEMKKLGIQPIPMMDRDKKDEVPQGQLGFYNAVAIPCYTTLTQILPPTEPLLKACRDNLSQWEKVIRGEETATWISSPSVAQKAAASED

Row | SMILES | IC50
1 | N#Cc1ccc2[nH]c(Nc3ccc(Oc4ncccc4C(F)(F)F)cc3)nc2c1 | 112 nM
2 | CC(=O)N1CCC(c2cccnc2Oc2ccc(C(=O)c3nc4ccccc4[nH]3)cc2)CC1 | 0.158 nM
3 | O=C(c1ccc(Oc2ncccc2-c2ccncc2)cc1)c1nc2ccccc2[nH]1 | 0.256 nM
4 | CC(=O)N1CCC(c2cccnc2Oc2ccc(Nc3nc4ccccc4s3)cc2)CC1 | 0.175 nM
5 | O=C(c1ccc(Oc2ncccc2Br)cc1)c1nc2ccccc2[nH]1 | 44.7 nM
6 | Brc1cccnc1Oc1ccc(Nc2nc3ccccc3s2)cc1 | 691 nM
7 | Cc1cc(-c2cccnc2Oc2ccc(C(=O)c3nc4ccccc4[nH]3)cc2)ccn1 | 0.76 nM
8 | Cn1cc(-c2cccnc2Oc2ccc(C(=O)c3nc4ccccc4[nH]3)cc2)cn1 | 6.28 nM
9 | COc1cc(-c2cccnc2Oc2ccc(C(=O)c3nc4ccccc4[nH]3)cc2)ccn1 | 1.61 nM
10 | O=C(c1ccc(Oc2ncccc2N2CCOCC2)cc1)c1nc2ccccc2[nH]1 | 1.59 nM
11 | N#Cc1cccc(-c2cccnc2Oc2ccc(Nc3nc4ccccc4s3)cc2)c1 | 18.3 nM
12 | COc1ccc(-c2cccnc2Oc2ccc(Nc3nc4ccccc4s3)cc2)cn1 | 23.7 nM
13 | c1cnc(Oc2ccc(Nc3nc4ccccc4s3)cc2)c(-c2cncnc2)c1 | 0.303 nM
14 | O=C(c1ccc(Oc2ncccc2-c2cccnc2)cc1)c1nc2ccccc2s1 | 32 nM
15 | Cc1cc(-c2cccnc2Oc2ccc(Nc3nc4ccccc4s3)cc2)ccn1 | 5 nM
16 | FC(F)(F)c1cc(-c2cccnc2Oc2ccc(Cc3nc4ccccc4[nH]3)cc2)ccn1 | 118 nM
17 | FC(F)(F)c1cc(-c2cccnc2Oc2ccc(Nc3nc4ccccc4[nH]3)cc2)ccn1 | 36.7 nM
18 | O=C(c1ccc(Oc2ncccc2-c2cnn(C3CC3)c2)cc1)c1nc2ccccc2[nH]1 | 23 nM
19 | O=C(c1ccc(Oc2ncccc2Br)cc1)c1nc2ccccc2n1C1CCCCO1 (configuration not stated) | 1610 nM
20 | O=C(c1ccc(Oc2ncccc2N2CCOCC2)cc1)c1nc2ccccc2s1 | 98.8 nM
21 | c1cnc(Oc2ccc(Nc3nc4ccccc4s3)cc2)c(-c2ccncn2)c1 | 22.4 nM
22 | O=C(c1ccc(Oc2ncccc2C(=O)NCCc2ccccn2)cc1)c1nc2ccccc2[nH]1 | 1.74 nM
23 | c1cnc(Oc2ccc(Nc3nc4ccccc4s3)cc2)c(-c2cccc3ncccc23)c1 | 6.91 nM
24 | COC[C@H](C)NC(=O)c1cccnc1Oc1ccc(C(=O)c2nc3ccccc3[nH]2)cc1 | 12.8 nM

Row | SMILES | IC50
25 | c1cnc(Oc2ccc(Nc3nc4ccccc4s3)cc2)c(-c2ccc3c(c2)OCCO3)c1 | 43.9 nM
26 | c1cnc(Oc2ccc(Nc3nc4ccccc4s3)cc2)c(-c2ccc3c(c2)CCO3)c1 | 42.4 nM
27 | O=C(c1ccc(Oc2ncccc2-c2ncnc3nc[nH]c23)cc1)c1nc2ccccc2[nH]1 | 32.7 nM
28 | O=C(c1ccc(Oc2ncccc2-c2ccncn2)cc1)c1nc2ccccc2[nH]1 | 7.45 nM
29 | Cc1ccc(-c2cccnc2Oc2ccc(C(=O)c3nc4ccccc4[nH]3)cc2)cn1 | 0.177 nM
30 | O=C(c1ccc(Oc2ncccc2Br)cc1)c1nc2ccc(F)cc2[nH]1 | 74.6 nM
31 | O=C(c1ccc(Oc2ncccc2Br)cc1)c1nc2ccccc2s1 | 3940 nM
32 | C1=C(c2cccnc2Oc2ccc(Nc3nc4ccccc4s3)cc2)CCCC1 | 72 nM
33 | C[C@@H](Cc1ccccn1)NC(=O)c1cccnc1Oc1ccc(C(=O)c2nc3ccccc3[nH]2)cc1 | 0.971 nM and 0.541 nM
34 | O=C(c1ccc(Oc2ncccc2N2CCCCC2)cc1)c1nc2ccccc2[nH]1 | 13.3 nM
35 | O=C(c1ccc(Oc2ncccc2N2CCCC2)cc1)c1nc2ccccc2[nH]1 | 14 nM
36 | O=C(c1ccc(Oc2ncccc2C(=O)N[C@@H](CO)Cc2ccccc2)cc1)c1nc2ccccc2[nH]1 | 12.8 nM
37 | O=C(c1ccc(Oc2ncccc2C(=O)N[C@H](CO)Cc2ccccc2)cc1)c1nc2ccccc2[nH]1 | 0.839 nM
38 | CC(C)(CNC(=O)c1cccnc1Oc1ccc(C(=O)c2nc3ccccc3[nH]2)cc1)c1ccccn1 | 1.48 nM
39 | O=C(c1ccc(Oc2ncccc2-c2ccnc3ccccc23)cc1)c1nc2ccccc2[nH]1 | 0.67 nM
40 | O=C(c1ccc(Oc2ncccc2C(=O)NC2(Cc3ccccc3)CC2)cc1)c1nc2ccccc2[nH]1 | 0.168 nM
41 | c1cnc(Oc2ccc(Nc3nc4ccccc4s3)cc2)c(-c2ccnc3ccccc23)c1 | 7.22 nM
42 | CC(C)(C)OC(=O)N1CC=C(c2cccnc2Oc2ccc(Nc3nc4ccccc4s3)cc2)CC1 | 44.4 nM
43 | CN(c1ccc(Oc2ncccc2-c2cccnc2)cc1)c1nc2ccccc2s1 | 15.2 nM
44 | O=C(c1ccc(Oc2ncccc2-c2cccnc2)cc1)c1nc2ncccc2[nH]1 | 4.81 nM
45 | O=C(c1ccc(Oc2ncccc2C(=O)N[C@H](CO)Cc2ccc(O)cc2)cc1)c1nc2ccccc2[nH]1 | 3.65 nM
46 | O=C(c1ccc(Oc2ncccc2C(=O)NCCc2ccccc2)cc1)c1nc2ccccc2[nH]1 | 2.72 nM
47 | C1=C(c2cccnc2Oc2ccc(Nc3nc4ccccc4s3)cc2)CCOC1 | 2.21 nM
48 | Cc1ccc(-c2cccnc2Oc2ccc(Nc3nc4ccccc4s3)cc2)cn1 | 0.219 nM

Row | SMILES | IC50
49 | COC1CCN(c2cccnc2Oc2ccc(Nc3nc4ccccc4s3)cc2)CC1 | 3.16 nM
50 | Cc1ccc(CCNC(=O)c2cccnc2Oc2ccc(C(=O)c3nc4ccccc4[nH]3)cc2)cc1 | 3.11 nM
51 | COC[C@H](Cc1ccccc1)NC(=O)c1cccnc1Oc1ccc(C(=O)c2nc3ccccc3[nH]2)cc1 | 1.64 nM
52 | c1cncc(-c2cccnc2Oc2ccc(Nc3nc4ccccc4[nH]3)cc2)c1 | 0.179 nM
53 | O=C(c1ccc(Oc2ncccc2C(=O)NC2Cc3ccccc3C2)cc1)c1nc2ccccc2[nH]1 | 56.7 nM
54 | CC(=O)N1CC=C(c2cccnc2Oc2ccc(Nc3nc4ccccc4s3)cc2)CC1 | 0.363 nM
55 | CC(=O)N1CC=C(c2cccnc2Oc2ccc(C(=O)c3nc4ccccc4[nH]3)cc2)CC1 | 0.194 nM
56 | C[C@@H](CNC(=O)c1cccnc1Oc1ccc(C(=O)c2nc3ccccc3[nH]2)cc1)c1ccccc1 | 2.69 nM
57 | O=C1C=C(c2cccnc2Oc2ccc(C(=O)c3nc4ccccc4[nH]3)cc2)CC1 | 1.01 nM
58 | C[C@H](CNC(=O)c1cccnc1Oc1ccc(C(=O)c2nc3ccccc3[nH]2)cc1)c1ccccc1 | 8.81 nM
59 | CC(=O)N1CCC(c2cccnc2Oc2ccc([C@H](O)c3nc4ccccc4[nH]3)cc2)CC1 | 4.2 nM
60 | OC(c1ccc(Oc2ncccc2C2CCOCC2)cc1)c1nc2ccccc2[nH]1 (configuration not stated) | 45.7 nM
61 | O=C1C=C(c2cccnc2Oc2ccc(Nc3nc4ccccc4s3)cc2)CC1 | 2.84 nM
62 | c1cnc(Oc2ccc(Nc3nc4ccccc4s3)cc2)c([C@H]2CCCO2)c1 | 54.2 nM
63 | O=C(c1ccc(Oc2ncccc2[C@@H]2CCCO2)cc1)c1nc2ccccc2[nH]1 | 4.97 nM and 13.3 nM
64 | C1=CO[C@H](c2cccnc2Oc2ccc(Nc3nc4ccccc4s3)cc2)CC1 | 22.3 nM
65 | C[C@]1(O)CCC[C@H](c2cccnc2Oc2ccc(Nc3nc4ccccc4s3)cc2)C1 | 6.87 nM
66 | O=C(c1ccc(Oc2ncccc2C2(F)CCOCC2)cc1)c1nc2ccccc2[nH]1 | 0.311 nM
67 | C[C@]1(O)CCC[C@H](c2cccnc2Oc2ccc(C(=O)c3nc4ccccc4[nH]3)cc2)C1 | 1.14 nM
68 | CN1C[C@@H](c2cccnc2Oc2ccc(Nc3nc4ccccc4s3)cc2)CC1=O | 0.195 nM
69 | FC(F)(c1ccc(Oc2ncccc2C2CCOCC2)cc1)c1nc2ccccc2[nH]1 | 11.6 nM
70 | Cn1c(C(=O)c2ccc(Oc3ncccc3C3CCOCC3)cc2)nc2ccccc21 | 0.509 nM
71 | O=C(c1ccc(Oc2ncccc2[C@@H]2CC[C@H](O)C2)cc1)c1nc2ccccc2[nH]1 | 0.675 nM
72 | C[C@@]1(O)CCC[C@@H](c2cccnc2Oc2ccc(Nc3nc4ccccc4s3)cc2)C1 | 3.66 nM
